Entries after “also recorded” stand apart in the source; their conditions may differ.

In test [1] the test system is COS7 cells transfected with CDCA1 and HLA-A*0301. As to the kind of experiment: Specific CTL activity against target cells expressing CDCA1 and HLA-A*0301. Type of test: cell-based, African green monkey. The note with it: for specific CTL activity of CTL clones: COS7 cells transfected with both CDCA1 and HLA-A*0301; for specific CTL activity of CTL clones against control cells: COS7 cells transfected with either full-length CDCA1 or HLA-A*0301. An excerpt: A cDNA encoding the open-reading frame of a target gene or HLA-A*0301 was amplified by PCR. The PCR-amplified product was cloned into an expression vector. Either or both of the target gene-expressing vector and the HLA-A*0301-expressing vector were transfected into COS7, which is a cell line negative for the target gene and HLA, using Lipofectamine 2000 (Invitrogen) following the manufacturer's recommended protocol. Two days after transfection, the transfected cells were harvested using versene (Invitrogen), and used as the target cell for CTL activity assay (5×10^4 cells/well).
The CTL clones established against CDCA1-A03-9-219 (SEQ ID NO: 7) (a) and CDCA1-A03-10-400 (SEQ ID NO: 38) (b) were investigated for their ability to recognize target cells expressing CDCA1 and the HLA-A*0301 molecule. COS7 cells transfected with both full-length CDCA1 and the HLA-A*0301 gene (a specific model of target cells expressing CDCA1 and the HLA-A*0301 gene) were prepared as the target cell. COS7 cells transfected with either full-length CDCA1 or HLA-A*0301 were prepared as the control.

Test [2] concerns peptide-pulsed C1R-A11 cells. Nature of the test: IFN-gamma ELISPOT assay of peptide-induced CTLs (HLA-A*1101). Type of test: cell-based, human. The note with it: CTLs induced from HLA-A*1101-positive donors, peptide-pulsed C1R-A11 vs control. A digest of the protocol:
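CD8+ T cells from HLA-A*1101-positive healthy donors stimulated three times (days 0, 7, 14) with autologous monocyte-derived DCs pulsed with 20 μg/ml peptide, with IL-7 and IL-2. On day 21, CTL lines and clones tested by IFN-γ ELISPOT against peptide-pulsed C1R-A11 stimulators (1×10^4 cells/well).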

Consider “KIKLGIQQLK (a peptide derived from CDCA1) [SEQ ID NO: 38]”, for which, in test [1] (listed as CDCA1-A03-10-400), the “specific CTL activity of CTL clones” value is “specific CTL activity; also recorded: potent CTL activity” and the “specific CTL activity of CTL clones against control cells” value was “a significant specific CTL activity was not shown; also recorded: a significant specific CTL activity was not detected”. For the same sequence, the “peptide-specific CTL activity (IFN-gamma production)” value in test [2] (listed as CDCA1-A11-10-400) is “potent IFN-gamma production; also recorded: significant specific CTL activity”.
Take “KTKRLNELK (a peptide derived from CDCA1) [SEQ ID NO: 7]”: in test [1] (listed as CDCA1-A03-9-219), the “specific CTL activity of CTL clones” value is “specific CTL activity; also recorded: potent CTL activity” and the “specific CTL activity of CTL clones against control cells” value is “a significant specific CTL activity was not shown; also recorded: a significant specific CTL activity was not detected”. For the same sequence, in test [2] (listed as CDCA1-A11-9-219), the “peptide-specific CTL activity (IFN-gamma production)” value is “potent IFN-gamma production; also recorded: significant specific CTL activity”.

The values are drawn from patent publication US10676514B2, “CDCA1-derived peptide and vaccine containing same” (ONCOTHERAPY SCIENCE, INC., priority 2014, dated 2020).
